21 compounds from patent US20240252506A1 (Hoffmann-La Roche Inc., priority 2021, published 2024) can be followed below.

Each structure is given as a SMILES string. ≈ marks a conversion by molar mass, not a printed value.

This experiment deals with Escherichia coli ATCC 25922. As to the kind of experiment: Minimal Inhibitory Concentration (MIC) determination, broth microdilution (CLSI M07-A10). It counts as cell-based. The conditions noted are these: Escherichia coli, ATCC25922, strain Escherichia coli ATCC 25922, 18-24 hours at 35±2° C., lowest concentration for complete growth inhibition (no visible growth), read-out: Escherichia coli growth inhibition MIC. The procedure, abridged: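 MIC read visually as the lowest concentration with complete growth inhibition after 18-24 h at 35±2° C, ambient air. Method follows CLSI M07-A10 broth microdilution, two-fold compound series, inoculum standardized to 0.5 McFarland then diluted 1:200.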
Take `Cn1c([C@@H]2C[C@@H](O)CN2)nc2c(F)c3c(c(F)c21)CC(CN1CCC2(CC1)CN(c1cnc4c(n1)NC(=O)CO4)C(=O)O2)C3.O=C(O)C(F)(F)F` (stereo partly drawn) [Example 55, 6-[8-[[4,8-difluoro-2-[(2S,4R)-4-hydroxypyrrolidin-2-yl]-1-methyl-6,7-dihydro-5H-cyclopenta[f]benzimidazol-6-yl]methyl]-2-oxo-1-oxa-3,8-diazaspiro[4.5]decan-3-yl]-4H-pyrazino[2,3-b][1,4]oxazin-3-one; 2,2,2-trifluoroacetic acid]: the MIC amounted to 0.25 µg/mL. In the case of `CN[C@H](CO)c1nc2c(F)c3c(c(F)c2[nH]1)CC(CN1CCC2(CC1)CN(c1cnc4c(n1)NC(=O)CO4)C(=O)O2)C3.O=C(O)C(F)(F)F` [Example 56, 6-[8-[[4,8-difluoro-2-[(1S)-2-hydroxy-1-(methylamino)ethyl]-3,5,6,7-tetrahydrocyclopenta[f]benzimidaozl-6-yl]methyl]-2-oxo-1-oxa-3,8-diazaspiro[4.5]decan-3-yl]-4H-pyrazino[2,3-b][1,4]oxazin-3-one; 2,2,2-trifluoroacetic acid] it was 0.25 µg/mL; in that of `CN[C@H](CO)Cc1nc2c(F)c3c(c(F)c2[nH]1)CC(CN1CCC2(CC1)CN(c1cnc4c(n1)NC(=O)CO4)C(=O)O2)C3` [Example 57, 6-[8-[[4,8-difluoro-2-[(2S)-3-hydroxy-2-(methylamino)propyl]-3,5,6,7-tetrahydrocyclopenta[f]benzimidazol-6-yl]methyl]-2-oxo-1-oxa-3,8-diazaspiro[4.5]decan-3-yl]-4H-pyrazino[2,3-b][1,4]oxazin-3-one], 0.5 µg/mL (≈ 0.835 µM); in that of `CN1C[C@H](O)C[C@H]1c1nc2c(F)c3c(c(F)c2[nH]1)CC(CN1CCC2(CC1)CN(c1cnc4c(n1)NC(=O)CO4)C(=O)O2)C3` [Example 58, 6-[8-[[4,8-Difluoro-2-[(2S,4R)-4-hydroxy-1-methyl-pyrrolidin-2-yl]-3,5,6,7-tetrahydrocyclopenta[f]benzimidazol-6-yl]methyl]-2-oxo-1-oxa-3,8-diazaspiro[4.5]decan-3-yl]-4H-pyrazino[2,3-b][1,4]oxazin-3-one], 1 µg/mL (≈ 1.64 µM). To `CNCC(=O)NCCn1nnc2c(F)c3c(c(F)c21)CC(CN1CCC2(CC1)CN(c1cnc4c(n1)NC(=O)CO4)C(=O)O2)C3` (stereo not drawn) [Example 61, N-[2-[4,8-Difluoro-6-[[2-oxo-3-(3-oxo-4H-pyrazino[2,3-b][1,4]oxazin-6-yl)-1-oxa-3,8-diazaspiro[4.5]decan-8-yl]methyl]-6,7-dihydro-5H-cyclopenta[f]benzotriazol-1-yl]ethyl]-2-(methylamino)acetamide] belongs 0.5 µg/mL (≈ 0.798 µM); to `CN(C)CCc1nc2cc3c(c(F)c2o1)CC(CN1CCC2(CC1)CN(c1cnc4c(n1)NC(=O)CO4)C(=O)O2)C3` (stereo not drawn) [Example 62, 6-[8-[[2-[2-(Dimethylamino)ethyl]-8-fluoro-6,7-dihydro-5H-cyclopenta[f][1,3]benzoxazol-6-yl]methyl]-2-oxo-1-oxa-3,8-diazaspiro[4.5]decan-3-yl]-4H-pyrazino[2,3-b][1,4]oxazin-3-one], 0.25 µg/mL (≈ 0.442 µM); to `CN(C)[C@H](CO)Cc1nc2c(F)c3c(c(F)c2[nH]1)CC(CN1CCC2(CC1)CN(c1cnc4c(n1)NC(=O)CO4)C(=O)O2)C3` [Example 63, 6-[8-[[2-[(2S)-2-(Dimethylamino)-3-hydroxy-propyl]-4,8-difluoro-3,5,6,7-tetrahydrocyclopenta[f]benzimidazol-6-yl]methyl]-2-oxo-1-oxa-3,8-diazaspiro[4.5]decan-3-yl]-4H-pyrazino[2,3-b][1,4]oxazin-3-one], 0.25 µg/mL (≈ 0.408 µM). With `CN(C)CCn1nnc2c(F)c3c(c(F)c21)CC(CN1CCC2(CC1)CN(c1cnc4c(n1)NC(=O)CO4)C(=O)O2)C3` (stereo not drawn) [Example 64, 6-[8-[[1-[2-(Dimethylamino)ethyl]-4,8-difluoro-6,7-dihydro-5H-cyclopenta[f]benzotriazol-6-yl]methyl]-2-oxo-1-oxa-3,8-diazaspiro[4.5]decan-3-yl]-4H-pyrazino[2,3-b][1,4]oxazin-3-one], the MIC stood at 0.25 µg/mL (≈ 0.428 µM). Consider `CN(C)CCn1nnc2c(F)c3c(cc21)CC(CN1CCC2(CC1)CN(c1cnc4c(n1)NC(=O)CO4)C(=O)O2)C3` (stereo not drawn) [Example 65, 6-[8-[[3-[2-(Dimethylamino)ethyl]-8-fluoro-6,7-dihydro-5H-cyclopenta[f]benzotriazol-6-yl]methyl]-2-oxo-1-oxa-3,8-diazaspiro[4.5]decan-3-yl]-4H-pyrazino[2,3-b][1,4]oxazin-3-one], for which the MIC is 0.125 µg/mL (≈ 0.221 µM). For `C[C@@H](N)c1nc2c(F)c3c(c(F)c2n1C)CC(CN1CCC2(CC1)CN(c1cnc4c(n1)NC(=O)CO4)C(=O)O2)C3` (stereo partly drawn) [Example 68, 6-[8-[[2-[(1R)-1-aminoethyl]-4,8-difluoro-1-methyl-6,7-dihydro-5H-cyclopenta[f]benzimidazol-6-yl]methyl]-2-oxo-1-oxa-3,8-diazaspiro[4.5]decan-3-yl]-4H-pyrazino[2,3-b][1,4]oxazin-3-one], the minimal inhibitory concentration (MIC) is 0.125 µg/mL (≈ 0.22 µM). To `CNCCc1nc2cc3c(c(F)c2[nH]1)CC(CN1CCC2(CC1)CN(c1cnc4c(n1)NC(=O)CO4)C(=O)O2)C3` (stereo not drawn) [Example 69, 6-[8-[[8-fluoro-2-[2-(methylamino)ethyl]-1,5,6,7-tetrahydrocyclopenta[f]benzimidazol-6-yl]methyl]-2-oxo-1-oxa-3,8-diazaspiro[4.5]decan-3-yl]-4H-pyrazinio[2,3-b][1,4]oxazin-3-one] belongs 0.25 µg/mL (≈ 0.454 µM). Take `COCCNCc1nc2c(F)c3c(cc2[nH]1)CC(CN1CCC2(CC1)CN(c1cnc4c(n1)NC(=O)CO4)C(=O)O2)C3` (stereo not drawn) [Example 70, 6-[8-[[8-fluoro-2-[(2-methoxyethylamino)methyl]-3,5,6,7-tetrahydrocyclopenta[f]benzimidazol-6-yl]methyl]-2-oxo-1-oxa-3,8-diazaspiro[4.5]decan-3-yl]-4H-pyrazino[2,3-b][1,4]oxazin-3-one]: the MIC was 0.25 µg/mL (≈ 0.431 µM).

In the case of `CNC(=O)CNCc1nc2c(F)c3c(cc2[nH]1)CC(CN1CCC2(CC1)CN(c1cnc4c(n1)NC(=O)CO4)C(=O)O2)C3` (stereo not drawn) [Example 71, 2-[[8-fluoro-6-[[2-oxo-3-(3-oxo-4H-pyrazino[2,3-b][1,4]oxazin-6-yl)-1-oxa-3,8-diazaspiro[4.5]decan-8-yl]methyl]-3,5,6,7-tetrahydrocyclopenta[f]benzimidazol-2-yl]methylamino]-N-methyl-acetamide], the MIC worked out at 1 µg/mL (≈ 1.68 µM). Consider `Cc1nc2c(F)c3c(cc2n1CCN)CC(CN1CCC2(CC1)CN(c1cnc4c(n1)NC(=O)CO4)C(=O)O2)C3` (stereo not drawn) [Example 73, 6-[8-[[3-(2-Aminoethyl)-8-fluoro-2-methyl-6,7-dihydro-5H-cyclopenta[f]benzimidazol-6-yl]methyl]-2-oxo-1-oxa-3,8-diazaspiro[4.5]decan-3-yl]-4H-pyrazino[2,3-b][1,4]oxain-3-one], for which the MIC was found to be 2 µg/mL (≈ 3.63 µM). Take `NCCn1nc2cc3c(c(F)c2n1)CC(CN1CCC2(CC1)CN(c1cnc4c(n1)NC(=O)CO4)C(=O)O2)C3` (stereo not drawn) [Example 74, 6-[8-[[2-(2-aminoethyl)-8-fluoro-6,7-dihydro-5H-cyclopenta[f]benzotriazol-6-yl]methyl]-2-oxo-1-oxa-3,8-diazaspiro[4.5]decan-3-yl]-4H-pyrazino[2,3-b][1,4]oxazin-3-one]: the MIC was found to be 0.06 µg/mL (≈ 0.112 µM).

For `NCCn1nnc2c(F)c3c(cc21)CC(CN1CCC2(CC1)CN(c1cnc4c(n1)NC(=O)CO4)C(=O)O2)C3` (stereo not drawn) [Example 75, 6-[8-[[3-(2-aminoethyl)-8-fluoro-6,7-dihydro-5H-cyclopenta[f]benzotriazol-6-yl]methyl]-2-oxo-1-oxa-3,8-diazaspiro[4.5]decan-3-yl]-4H-pyrazino[2,3-b][1,4]oxazin-3-one], the MIC is not above 0.06 µg/mL. To `NCCn1nnc2cc3c(c(F)c21)CC(CN1CCC2(CC1)CN(c1cnc4c(n1)NC(=O)CO4)C(=O)O2)C3` (stereo not drawn) [Example 76, 6-[8-[[1-(2-aminoethyl)-8-fluoro-6,7-dihydro-5H-cyclopenta[f]benzotriazol-6-yl]methyl]-2-oxo-1-oxa-3,8-diazaspiro[4.5]decan-3-yl]-4H-pyrazino[2,3-b][1,4]oxazin-3-one] belongs 0.125 µg/mL (≈ 0.233 µM). To `NC1(Cn2nc3c(F)c4c(c(F)c3n2)CC(CN2CCC3(CC2)CN(c2cnc5c(n2)NC(=O)CO5)C(=O)O3)C4)CC1.O=C(O)C(F)(F)F` [Example 77, 6-[8-[[2-[(1-aminocyclopropyl)methyl]-4,8-difluoro-6,7-dihydro-5H-cyclopenta[f]benzotriazol-6-yl]methyl]-2-oxo-1-oxa-3,8-diazaspiro[4.5]decan-3-yl]-4H-pyrazino[2,3-b][1,4]oxazin-3-one; 2,2,2-trifluoroacetic acid] belongs 0.25 µg/mL.

For `NC1(Cn2nnc3c(F)c4c(c(F)c32)CC(CN2CCC3(CC2)CN(c2cnc5c(n2)NC(=O)CO5)C(=O)O3)C4)CC1` (stereo not drawn) [Example 78, 6-[8-[[1-[(1-aminocyclopropyl)methyl]-4,8-difluoro-6,7-dihydro-5H-cyclopenta[f]benzotriazol-6-yl]methyl]-2-oxo-1-oxa-3,8-diazaspiro[4.5]decan-3-yl]-4H-pyrazino[2,3-b][1,4]oxazin-3-one], the minimal inhibitory concentration (MIC) stood at 0.25 µg/mL (≈ 0.43 µM). As to `O=C1COc2ncc(N3CC4(CCN(CC5Cc6c(c(F)c7nn(C8CNC8)nc7c6F)C5)CC4)OC3=O)nc2N1.O=CO` [Example 79, 6-[8-[[2-(azetidin-3-yl)-4,8-difluoro-6,7-dihydro-5H-cyclopenta[f]benzotriazol-6-yl]methyl]-2-oxo-1-oxa-3,8-diazaspiro[4.5]decan-3-yl]-4H-pyrazino[2,3-b][1,4]oxazin-3-one; formic acid], the minimum inhibitory concentration (MIC) was determined as 0.125 µg/mL.

On to `O=C1COc2ncc(N3CC4(CCN(CC5Cc6c(c(F)c7c(nnn7C7CNC7)c6F)C5)CC4)OC3=O)nc2N1` (stereo not drawn) [Example 80, 6-[8-[[1-(azetidin-3-yl)-4,8-difluoro-6,7-dihydro-5H-cyclopenta[f]benzotriazol-6-yl]methyl]-2-oxo-1-oxa-3,8-diazaspiro[4.5]decan-3-yl]-4H-pyrazino[2,3-b][1,4]oxazin-3-one], for which the minimal inhibitory concentration (MIC) came out at 0.125 µg/mL (≈ 0.22 µM).
